From patent publication US20140066657A1, “DOSAGE REGIMEN FOR A S1P RECEPTOR AGONIST” (Novartis AG, priority 2008, published 2014)

Assays:
[1] = tested on: healthy subjects; conditions: administration of 1.25 mg; cited from earlier work
[2] = tested on: multiple sclerosis; conditions: humans; Mehling et al. 2008, Kappos et al. 2006; cited from earlier work
[3] = tested on: healthy subjects; assay: Double-blind, placebo-controlled dose titration clinical study; heart rate by continuous telemetry and Holter; assay type: in vivo, human
Procedure: A single-center, double-blind, placebo-controlled, dose titration, once-daily, multiple-oral-dose clinical study in healthy subjects was conducted to evaluate the effect of a dosage regimen of FTY720 according to the present invention. A total of 36 subjects were randomly assigned to one of the three groups. Each subject participated in a screening period of maximal 21 days, a baseline period (Day −1), a 9-day dose-administration period, and clinical study completion assessments on Day 10. Subjects were assigned to one of the three groups (dose titration regimen group, placebo Control group, or active control group) and received the once daily dose in a double-blinded manner (Table 1). In the dose titration group, increasing once daily doses of Compound A (FTY720), starting at 0.125 mg o.d. and ending at the maximal therapeutic dose of 1.25 mg o.d. were administered on days 1 to 9 of the study according to the schedule shown in Table 1 below. The placebo control group received placebo through out the duration of the study and the active control group received a once daily dose of 1.25 mg of FTY720 on days 1 to 9. [table] On Day −1 (baseline), subjects will undergo baseline assessments including 24 hour holter monitoring and telemetry assessments. Pharmacodynamic and safety assessments are performed up to 24 hours post last dose. Heart rate is monitored via telemetry on Day −1 through Day 10, 24 hour after the last dosing. Heart rhythm is assessed via 24 hr continuous holter monitoring on Day −1, Day 1, and Day 9. For each dosing for each subject, the drug is administered as closely as practically possible to the time administered on Day −1. Safety assessments includes physical examinations, vital signs and body measurements, 12-lead ECG evaluations, standard clinical laboratory evaluations hematology, blood chemistry, urinalysis, adverse event and serious adverse event monitoring. Systolic and diastolic blood pressure and pulse are measured after the subject has rested quietly in the sitting position for at least 3 minutes. Blood pressure is measured at the same arm on each occasion. Standard 12-lead ECGs are recorded at Screening, baseline, 4 hours post-dose on Day 1 and Day 8, and at Study Completion. The variables recorded are: date and time of ECG, heart rate. PR interval, QT interval (uncorrected), QTcB, QRS duration. The overall interpretation is collected with a Yes/No statement to confirm if any clinically relevant abnormalities are present, which needs to be specified further. Subjects remain on continuous telemetry, starting before breakfast on Day −1 and proceeding throughout the administration period up to Day 10 (24 hour after the last dose). Over this ten day duration of continuous heart rate collection for each subject, one heart rate value is obtained every minute (‘minute unit heart rate’), representing the average heart rate value over that minute. The heart rate database for each subject contains approximately 14,400 data points (10 days×24 hr×60 min). 24-hour continuous Holter-ECG data are captured via a digital Holter monitor (12-lead, on Days −1, 1, 6, and 8), and transferred for interpretation and reporting. Hotter monitoring starts approximately at 7:00 and the time of dose administration is regarded as the time “0 hours'. Holter “cuts” are derived from the dataset at 1 hour intervals starting from Day −1 and continuing for 24 hours or the end of the cleaned Hotter monitoring dataset. Cardiac conduction intervals: arrhythmia monitoring includes the frequency and duration of sinus pauses (>2 sec and >3 sec) and atrio-ventricular blocks. Frequency and duration of atrial and ventricular ectopy and sinus rhythm are also recorded. The daily chronotropic effect is defined as the percent decrease in HRmin (minimum heart rate) between two consecutive days. It is calculated on days 1 to 9.

[4] = FTY720 1.25 mg once daily treatment group (active control), oral, healthy subjects

## CCCCCCCCc1ccc(CCC(N)(CO)CO)cc1.Cl [FTY720, 2-amino-2-[2-(4-octylphenyl)ethyl]propane-1,3-diol]
[1]
  decrease in heart rate: approximately 8 beats/min (BPM)
[2]
  efficacy in the treatment of multiple sclerosis: has been demonstrated in humans
[3]; [4]
  additional decrease in heart rate (daily average) from Day 1 to Day 2: approximately 3 BPM
  decrease in heart rate (daily average) from Day -1 to Day 1: approximately 8 BPM
[3]; FTY720 titration group (0.125/0.25/0.5/1.25 mg o.d.), over the eight day course of the dose titration
  gradual decrease in heart rate per day: 1-2 BPM per day
[3]; FTY720 titration group, initiation of 1.25 mg on Day 8
  dip in heart rate on initiation of 1.25 mg compared to the preceding days: does not result in dip in heart rate
[3]; dose titration regimen compared with the FTY720 1.25 mg group
  daily minimum heart rates during the course of the study: improved daily minimum heart rates
[3]; dose titration regimen versus 1.25 mg o.d. from Day 1
  negative chronotropic effect seen on Day 1 of treatment initiation: attenuates the negative chronotropic effect
